# Measured values published in patent US9655887B2, “Pharmaceutical composition and the use thereof, and application regime of said pharmaceutical composition for on-demand contraception” (BAYER PHARMA AKTIENGESELLSCHAFT, priority 2013, dated 2017).
# Marks after values point to notes of the source that are not given here.
# Legend:
# [1] = tested on: fertilizability of ovulated cumulus-oocyte complexes; assay: In-vivo action on post-ovulatory in-vitro fertilization; set-up: species or system mice (strain: B6D2F1); settings: 1-10 mg/kg s.c.
# From the text: 4.3 In-Vivo Action on Post-Ovulatory In-Vitro Fertilization:
# Substances can exert an influence on fertility by decreasing the fertilizability of oocytes or cumulus-oocyte complexes. In order to study such effects, substances can be administered in vivo and subjected to in vitro fertilization after ovulation of cumulus-oocyte complexes has taken place. The in-vitro fertilization rate, where no test substance is any longer present, allows conclusions as to the in-vivo effects of the test substances.
# Immature female mice (strain: B6D2F1, Charles River, Suelzfeld, age: 19-25 days) were kept in Macrolon cages in rooms with controlled illumination (12 hrs darkness: 12 hrs light), fed with a standard diet and provided with drinking water ad libitum.
# The mice were primed with PMSG (pregnant mare serum gonadotropin) (10 IU/animal i.p.). After 48 hours, a stimulus triggering ovulation was created in the animals by one administration of 10 IU/animal i.p. (hCG, human chorionic gonadotropin). The test substances were dissolved in benzyl benzoate/castor oil (1+4 v/v) and administered in a volume of 0.1 ml s.c. 1 hour before hCG (n=5 animals per group). Fourteen hours after hCG administration, the animals were killed. […] Twenty-four hours after the incubation with the sperms, the number of fertilized oocytes is established and the percentage fertilization rate determined
# [2] = molecular target: EP2 subtype of the human PGE2 receptor (hEP2 receptor) (Homo sapiens, UniProt P43116); assay: cAMP antagonism test, human prostaglandin E2 (subtype EP2) receptor signal; type: cell-based
# Outline: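 Cells (625000 cells/ml, mixed with cAMP-d2) were preincubated 20 min at RT with compound ([…]). They were then stimulated 60 min at RT with a 3× PGE2 solution (1.5 nM) in PBS-IBMX and lysed for 20 min. cAMP was read by HTRF as the 665/620 nm ratio ×10000, with antagonism seen as a rise in FRET signal.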
# [3] = tested on: fertilizability of oocytes or cumulus-oocyte complexes; assay: In-vivo effect on postovulatory in-vitro fertilization in the mouse (2-cell embryos); set-up: species or system mice (strain: B6D2F1); settings: vehicle 36.3 ± 9.5
# From the text: 7. In-Vivo Effect on Postovulatory In-Vitro Fertilization in the Mouse
# Substances can influence fertility by lowering fertilizability of oocytes or cumulus-oocyte complexes. To examine such effects, substances can be administered in vivo and, after ovulation of cumulus-oocyte complexes, the latter are subjected to in-vitro fertilization. The in-vitro fertilization rate in the absence of test substance allows conclusions to be drawn on the in-vivo effects of the test substances.
# Immature female mice (strain: B6D2F1, Charles River, Suelzfeld, age: 19-25 days) were kept in Makrolon cages in rooms with controlled lighting (12 hours of darkness: 12 hours of light), fed with a standard diet and provided with water ad libitum.
# The mice were primed with PMSG (Pregnant Mare Serum Gonadotropin) (10 IU/animal i.p.). After 48 hours, by administration of 10 IU/animal i.p., an ovulation-triggering stimulus (hCG, human Chorion Gonadotropin) was generated in the animals. EP2 receptor antagonists were dissolved in benzyl benzoate/castor oil (1+4 v/v) and administered in a volume of 0.1 ml s.c. 1 hour prior to hCG (n=5 animals per group). The COX inhibitor was suspended in a carrier liquid (85 mg of Myrj®53 polyoxyl(50)stearate; CAS No. 9004-99-3) in 100 ml of 0.9% w/v NaCl solution), and the appropriate dose was administered in a volume of 2 ml/kg of body weight orally 1 hour prior to hCG. Fourteen hours after administration of hCG, the animals were sacrificed. Ovulated oocytes and cumulus-oocyte complexes were obtained from the ovarii bursa and/or the oviduct and subjected to in-vitro fertilization, with a sperm number of 40 000 sperms/0.5 ml for 1 hour being used for fertilization. Twenty-four hours after incubation with the sperms, the number of fertilized oocytes and the number of 2-cell embryos per animal were determined.
# ovulation = settings: cited from earlier work
# [4] = tested on: fertility of the female rat; assay: Single administration of EP2 receptor antagonists and COX inhibitors alone or in combination, fertility of the rat (implantation sites); type: in vivo, female Han Wistar rats
# Method: 6. Effect of a Single Administration of EP2 Receptor Antagonists and COX Inhibitors Alone or in Combination on the Fertility of the Rat
# In the experiments below, female Han Wistar rats having a weight of 200-270 g were used. The animals were kept in Makrolon cages in rooms with controlled lighting (12 hours of darkness; 12 hours of light), fed with a standard diet and provided with water ad libitum.
# EP2 receptor antagonists were dissolved in benzyl benzoate/castor oil (1+4 v/v), and the dose was administered in a volume of 1 ml/kg of body weight s.c. Optionally, EP2 receptor antagonists were also administered orally in the same vehicle as the COX inhibitors (see below). […]
# The COX inhibitors were suspended in a carrier liquid (85 mg of Myrj®53 polyoxyl(50)stearate; CAS No. 9004-99-3) in 100 ml of 0.9% w/v NaCl solution), and the dose corresponding to the treatment group was administered in a volume of 2 ml/kg of body weight.
# Prior to the start of the experiment, two cycles were observed using vaginal swabs. Only animals having a regular 4-day cycle were used in the experiment. The animals were randomized to the treatment groups.
# The animals were treated once in the proestrus, the day in the cycle when the LH peak occurs in the evening, with the test substances either alone or in combination. On the evening of the proestrus, the female animals mated with a male rat. Successive mating was confirmed by detection of vaginal sperms in the vaginal swab the next morning. The effect on fertility was determined 9-15 days after mating by the number of implantation sites of the animals. […]
# [5] = single administration in proestrus, Indomethacin 1 mg/animal, 16:00
# [6] = Table 6.3, proestrus, Piroxicam 2 mg/animal, 12:30
# [7] = single administration in proestrus, Piroxicam 2 mg/animal, 7:00
# [8] = single administration in proestrus, Piroxicam 2 mg/animal, 13:00
# [9] = single administration in proestrus, Piroxicam 2 mg/animal, 18:00, data of n = 5 animals
# Sequence of EP2 subtype of the human PGE2 receptor (hEP2 receptor) (P43116 whole entry): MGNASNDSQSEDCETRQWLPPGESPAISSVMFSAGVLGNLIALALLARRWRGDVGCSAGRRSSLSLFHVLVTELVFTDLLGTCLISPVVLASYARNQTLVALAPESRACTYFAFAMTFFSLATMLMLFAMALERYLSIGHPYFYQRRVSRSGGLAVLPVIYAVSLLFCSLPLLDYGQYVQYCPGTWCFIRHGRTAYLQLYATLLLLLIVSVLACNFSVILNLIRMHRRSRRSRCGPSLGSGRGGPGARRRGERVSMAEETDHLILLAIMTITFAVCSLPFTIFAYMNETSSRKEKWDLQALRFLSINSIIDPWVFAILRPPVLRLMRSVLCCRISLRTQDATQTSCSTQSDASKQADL
smiles,measurement,setting,value
"COCCNC(=O)c1ccc2nn(CC3CCN(C(=O)c4ccc(Oc5ccc(C(F)(F)F)cc5)cc4)CC3)cc2c1C [Example 17, N-(2-methoxyethyl)-4-methyl-2-[(1-{4-[4-(trifluoromethyl)phenoxy]benzoyl}piperidin-4-yl)methyl]-2H-indazole-5-carboxamide]",influence on the fertilizability of ovulated cumulus-oocyte complexes,[1],dose-dependent influence on the fertilizability of ovulated cumulus-oocyte complexes
"Cc1c(C(=O)NCC(F)(F)F)ccc2nn(CC3CCN(C(=O)c4ccc(Oc5ccc(C(F)(F)F)cc5)cc4)CC3)cc12 [Example E126, 4-methyl-N-(2,2,2-trifluoroethyl)-2-[(1-{4-[4-(trifluoromethyl)phenoxy]benzoyl}piperidin-4-yl)methyl]-2H-indazole-5-carboxamide]",IC50,[2],> 50 nM
same,2-Cell embryos per animal (mean ± SD),[3]; E126 0.1 mg/animal s.c. 1 hour prior to hCG,30.8 ± 7.3
same,2-Cell embryos per animal (mean ± SD),[3]; E126 0.5 mg/animal s.c. 1 hour prior to hCG,12.6 ± 3.6
"COc1ccc2c(c1)c(CC(=O)O)c(C)n2C(=O)c1ccc(Cl)cc1 [Indomethacin, indomethacin, reference compound]",effect on ovulation,ovulation; 2×100 mg per day over 5 days (Killick and Elstein 1987),inhibition of ovulation
same,delay of ovulation,"ovulation; 3×50 mg per day for at least 3 days, 6 women, in 5 cases (Athanasious et al.)",2 to 12 days
same,Absolute implantations number of 6 animals,[4]; [5],67
same,Implantations per animal (mean ± SD),[4]; [5],11.2 ± 2.9
"CN1C(C(=O)Nc2ccccn2)=C(O)c2ccccc2S1(=O)=O [Piroxicam, piroxicam, reference compound]",Absolute implantations number of 6 animals,[4]; [6],71
same,Implantations per animal (mean ± SD),[4]; [6],11.8 ± 3.7
same,Absolute implantations number of 6 animals,[4]; [7],81
same,Implantations per animal (mean ± SD),[4]; [7],13.5 ± 1.0
same,Absolute implantations number of 6 animals,[4]; [8],68
same,Implantations per animal (mean ± SD),[4]; [8],11.3 ± 1.6
same,Absolute implantations number of 6 animals,[4]; [9],53*
same,Implantations per animal (mean ± SD),[4]; [9],10.6 ± 1.5
same,2-Cell embryos per animal (mean ± SD),[3]; Piroxicam 0.1 mg/animal orally 1 hour prior to hCG,10.8 ± 3.8
